Experimental data: patent EP4741391A1, “NMT INHIBITOR, AND PREPARATION METHOD THEREFOR AND USE THEREOF” (Nanjing Synnocare Pharmaceutical Technology Co., Ltd., priority 2023, dated 2025)

Experiments:
NMT1 enzyme = molecular target: T1, NMT1 enzyme (Homo sapiens, UniProt P30419); assay: Inhibitory activity on NMT1 enzyme catalysis (fluorescence intensity, CPM probe); type: biochemical; conditions: 6 nM NMT1 enzyme, 1.25 µM myristoyl-CoA, 20 µM HSPP60 SRC peptide, 45 minutes at 25 °C
T1 sequence (P30419 1-496): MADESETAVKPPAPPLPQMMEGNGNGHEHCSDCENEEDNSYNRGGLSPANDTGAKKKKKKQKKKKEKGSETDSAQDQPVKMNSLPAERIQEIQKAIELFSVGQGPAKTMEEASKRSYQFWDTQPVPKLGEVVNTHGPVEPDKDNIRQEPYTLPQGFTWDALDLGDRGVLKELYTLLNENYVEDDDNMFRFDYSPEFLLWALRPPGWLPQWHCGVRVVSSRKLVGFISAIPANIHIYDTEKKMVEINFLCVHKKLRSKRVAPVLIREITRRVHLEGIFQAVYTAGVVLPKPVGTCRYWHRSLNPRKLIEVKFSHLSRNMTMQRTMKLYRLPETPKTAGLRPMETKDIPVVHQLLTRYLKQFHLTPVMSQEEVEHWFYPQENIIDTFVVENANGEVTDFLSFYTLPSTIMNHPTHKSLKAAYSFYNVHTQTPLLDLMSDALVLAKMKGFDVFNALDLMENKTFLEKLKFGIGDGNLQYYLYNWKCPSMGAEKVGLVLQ
Description: This study evaluated the ability of the compounds of the invention to inhibit NMT1 catalytic activity in vitro. The experiment used a FI (Fluorescence Intensity) analysis method, characterizing NMT1 inhibitors under conditions of 1.25 µM myristoyl-CoA (Lithium salt, Sigma, M4414). In this experiment, a synthesized peptide with the sequence H-Gly-Ser-Asn-Lys-Ser-Lys-Pro-Lys-NH2, HSPP60SRC (Nanjing Peptide Industry, NJP23953), was used as the reaction substrate. The final concentration of the NMT1 enzyme was 6 nM, the final concentration of CPM (Reactive thiol fluorescence probe, Invitrogen, D346) was 1 µM, the final concentration of HSPP60 SRC was 20 µM, and the final concentration of DMSO was 0.5%.
Compounds were dissolved in DMSO to obtain 10 mM stock solutions. Dose-response solutions were prepared with a top endpoint compound concentration of 3 mM, followed by three-fold serial dilutions in DMSO, totaling ten data points. Using an ECHO acoustic liquid handler (BECKMAN, ECHO 655 system), 0.05 µL of the diluted compound solutions was transferred to a 384-well assay plate (Corning, CLS4514). Then, 2.5 µL of the NMT1 enzyme working solution was added to the 384-well assay plate, followed by incubation at 25 °C for 10 minutes. Subsequently, 5 µL of the CPM and myristoyl-CoA working solution was added, the plate was centrifuged at 1000 rpm for 1 minute, and then 2.5 µL of the HSPP60 SRC working solution was added to initiate the reaction. The reaction was incubated at 25 °C for 45 minutes. The FI signal ([…]; ex: 405 nm) was detected using an HTS high-throughput screening multifunctional microplate reader (BMG, PHERA star FSX).
The inhibition rate of the compounds on NMT1 enzyme catalytic activity was calculated using the following formula: Inhibition Percentage (%) = 100 * (Mean of DMSO group - Mean of Compound group) / (Mean of DMSO group - Mean of Blank control group). The IC50 curve of the compounds was fitted using the software XLfit 5.5.0 according to the nonlinear regression equation. Table 1 provides the inhibitory activity of the compounds of the invention on NMT1 enzyme catalysis.

MV-4-11 cells = assay: Anti-proliferative activity against MV-4-11 cells (three-day cell viability chemiluminescence); type: cell-based; conditions: MV-4-11 human monocytic leukemia cells, three days of exposure
Description: This study utilized a cell proliferation assay to analyze the cytotoxicity of MV-4-11 human monocytic leukemia cells after three days of exposure to NMT1 inhibitors. The MV-4-11 cell line was purchased from Nanjing Cobuilder Biotechnology Co., Ltd., and cultured in IMDM medium (Viva cell) in an incubator (Thermo) at 37 °C with 5% CO2. In this experiment, NMT1 inhibitors were dissolved in DMSO to obtain 600 µM stock solutions. Dose-response solutions were prepared with a top endpoint compound concentration of 3 µM, followed by three-fold serial dilutions in DMSO, totaling eight data points. The final concentration of DMSO was 0.5%.
MV-4-11 cells were seeded into a white 96-well plate, 80 µL of cell suspension per well, containing 6000 MV-4-11 cells. The cell plate was placed in the CO2 incubator for overnight culture. Then, 20 µL of NMT1 inhibitor solutions at different concentrations were added to the wells. The 96-well plate was placed back into the incubator for three days. Another cell plate was prepared, and the signal was read on the day of drug addition to serve as the maximum value (Max value in the equation below) for data analysis. To this cell plate, 25 µL of cell viability chemiluminescence detection reagent was added per well, followed by incubation at room temperature for 10 minutes to stabilize the luminescence signal. A multi-label analyzer was used for reading.
The raw data were converted into inhibition rates using the equation (Sample - Min) / (Max - Min) * 100%. The IC50 values were then determined by fitting a four-parameter curve (using the "log(inhibitor) vs. response - Variable slope" model in GraphPad Prism). Min: wells treated with 0.5% DMSO; Max: Day 0 wells. Table 1 provides the inhibitory activity of the compounds of the invention on MV-4-11 cell proliferation. Table 1: Compound Inhibitory Activity against NMT1 Enzyme (IC50) and Anti-proliferative Activity against MV-4-11 Cells (IC50)

Molecule `Cc1c(CCOc2cc(Cl)ccc2-c2ccn3ncc(CN(C)C)c3c2)c(C#N)nn1C` [Compound 13, 4-{2-[(5-chloro-2-{3-[(dimethylamino)methyl]pyrazolo[1,5-a]pyridin-5-yl}phenyl)oxy]ethyl}-1,5-dimethylpyrazole-3-carbonitrile] has an IC50 (NMT1 enzyme) of 2.79 nM and an IC50 (MV-4-11 cells; Homo sapiens, MV4-11, 72 h) of 23.2 nM.

`Cc1nn(C)c(C)c1CCOc1cc(Cl)ccc1-c1ccn2ncc(CN(C)C)c2c1` [Compound 14, 5-(4-chloro-2-{[2-(1,3,5-trimethylpyrazol-4-yl)ethyl]oxy}phenyl)-3-[(dimethylamino)methyl]pyrazolo[1,5-a]pyridine] gave an IC50 (NMT1 enzyme) of 1.98 nM and an IC50 (MV-4-11 cells; Homo sapiens, MV4-11, 72 h) of 18.4 nM.

With `CCc1nn(C)c(C)c1CCOc1cc(Cl)ccc1-c1ccn2ncc(CN(C)C)c2c1` [Compound 15, 5-(4-chloro-2-{[2-(3-ethyl-1,5-dimethylpyrazol-4-yl)ethyl]oxy}phenyl)-3-[(dimethylamino)methyl]pyrazolo[1,5-a]pyridine] the IC50 (NMT1 enzyme) was 2.34 nM and the IC50 (MV-4-11 cells; Homo sapiens, MV4-11, 72 h) was 20.7 nM.

For `Cc1c(CCOc2cc(Cl)ccc2-c2ccn3ncc(CN(C)C)c3c2)c(C(N)=O)nn1C` [Compound 16, 4-{2-[(5-chloro-2-{3-[(dimethylamino)methyl]pyrazolo[1,5-a]pyridin-5-yl}phenyl)oxy]ethyl}-1,5-dimethylpyrazole-3-carboxamide], the IC50 (NMT1 enzyme) was 5.32 nM and the IC50 (MV-4-11 cells; Homo sapiens, MV4-11, 72 h) was 41.8 nM.

`CNC(=O)c1nn(C)c(C)c1CCOc1cc(Cl)ccc1-c1ccn2ncc(CN(C)C)c2c1` [Compound 17, 4-{2-[(5-chloro-2-{3-[(dimethylamino)methyl]pyrazolo[1,5-a]pyridin-5-yl}phenyl)oxy]ethyl}-1,5,N-trimethylp yrazole-3-carboxamide] gave an IC50 (NMT1 enzyme) of 2.38 nM and an IC50 (MV-4-11 cells; Homo sapiens, MV4-11, 72 h) of 25.8 nM.

Work on `CCNC(=O)c1nn(C)c(C)c1CCOc1cc(Cl)ccc1-c1ccn2ncc(CN(C)C)c2c1` [Compound 18, 4-{2-[(5-chloro-2-{3-[(dimethylamino)methyl]pyrazolo[1,5-a]pyridin-5-yl}phenyl)oxy]ethyl}-N-ethyl-1,5-dime thylpyrazole-3-carboxamide] yielded an IC50 (NMT1 enzyme) of 2.97 nM and an IC50 (MV-4-11 cells; Homo sapiens, MV4-11, 72 h) of 30.2 nM.

`CCN(C)C(=O)c1nn(C)c(C)c1CCOc1cc(Cl)ccc1-c1ccn2ncc(CN(C)C)c2c1` [Compound 19, 4-{2-[(5-chloro-2-{3-[(dimethylamino)methyl]pyrazolo[1,5-a]pyridin-5-yl}phenyl)oxy]ethyl}-N-ethyl-1,5,N-tri methylpyrazole-3-carboxamide] was tested, and the IC50 (NMT1 enzyme) was 3.21 nM and the IC50 (MV-4-11 cells; Homo sapiens, MV4-11, 72 h) was 29.8 nM.

With `CCN(CC)C(=O)c1nn(C)c(C)c1CCOc1cc(Cl)ccc1-c1ccn2ncc(CN(C)C)c2c1` [Compound 20, 4-{2-[(5-chloro-2-{3-[(dimethylamino)methyl]pyrazolo[1,5-a]pyridin-5-yl}phenyl)oxy]ethyl}-N,N-diethyl-1,5-dimethylpyrazole-3-carboxamide] the IC50 (NMT1 enzyme) was 2.76 nM and the IC50 (MV-4-11 cells; Homo sapiens, MV4-11, 72 h) was 23.5 nM.

`CNCc1cnn2ccc(-c3ccc(F)c(F)c3OCCc3c(C(=O)N(C)C)nn(C)c3C)cc12` [Compound 21, 4-{2-[(2,3-difluoro-6-{3-[(methylamino)methyl]pyrazolo[1,5-a]pyridin-5-y 1}phenyl)oxy]ethyl}-1,5,N,N-tetramet hylpyrazole-3-carboxamide] was tested, and the IC50 (NMT1 enzyme) was 1.61 nM, the IC50 (MV-4-11 cells; Homo sapiens, MV4-11, 72 h) was less than 10 nM and the IC50 (MV-4-11 cells) was 5.91 nM.

`CNCc1cnn2ccc(-c3ccc(F)c(F)c3OCCc3c(C(=O)NC)nn(C)c3C)cc12` [Compound 22, 4-{2-[(2,3-difluoro-6-{3-[(methylamino)methyl]pyrazolo[1,5-a]pyridin-5-yl}phenyl)oxy]ethyl}-1,5,N-trimethylp yrazole-3-carboxamide] was tested, and the IC50 (NMT1 enzyme) was 1.89 nM and the IC50 (MV-4-11 cells; Homo sapiens, MV4-11, 72 h) was 10.6 nM.

`CNCc1cnn2ccc(-c3ccc(F)c(F)c3OCCc3c(C)nn(C)c3C)cc12` [Compound 23, 5-(3,4-difluoro-2-{[2-(1,3,5-trimethylpyrazol-4-yl)ethyl]oxy}phenyl)-3-[(methylamino)methyl]pyrazolo[1,5-a]py ridine] showed an IC50 (NMT1 enzyme) of 2.57 nM and an IC50 (MV-4-11 cells; Homo sapiens, MV4-11, 72 h) of 19.4 nM.

`CCc1nn(C)c(C)c1CCOc1c(-c2ccn3ncc(CNC)c3c2)ccc(F)c1F` [Compound 24, 5-(2-{[2-(3-ethyl-1,5-dimethylpyrazol-4-yl)ethyl]oxy}-3,4-difluorophenyl)-3-[(methylamino)methyl]pyrazolo[1,5-a]pyridine] showed an IC50 (NMT1 enzyme) of 2.81 nM and an IC50 (MV-4-11 cells; Homo sapiens, MV4-11, 72 h) of 24.9 nM.

Work on `CNCc1cnn2ccc(-c3ccc(F)c(F)c3OCCc3c(C(C)C)nn(C)c3C)cc12` [Compound 25, 5-[2-({2-[1,5-dimethyl-3-(prop-2-yl)pyrazol-4-yl]ethyl}oxy)-3,4-difluorophenyl]-3-[(methylamino)methyl]pyrazo lo[1,5-a]pyridine] yielded an IC50 (NMT1 enzyme) of 3.26 nM and an IC50 (MV-4-11 cells; Homo sapiens, MV4-11, 72 h) of 25.8 nM.

Work on `CNCc1cnn2ccc(-c3ccc(F)c(F)c3OCCc3c(CF)nn(C)c3C)cc12` [Compound 26, 5-[3,4-difluoro-2-({2-[3-(fluoromethyl)-1,5-dimethylpyrazol-4-yl]ethyl}oxy)phenyl]-3-[(methylamino)methyl]p yrazolo[1,5-a]pyridine] yielded an IC50 (NMT1 enzyme) of 2.48 nM and an IC50 (MV-4-11 cells; Homo sapiens, MV4-11, 72 h) of 12.3 nM.

For `CNCc1cnn2ccc(-c3ccc(F)c(F)c3OCCc3c(C#N)nn(C)c3C)cc12` [Compound 27, 4-{2-[(2,3-difluoro-6-{3-[(methylamino)methyl]pyrazolo[1,5-a]pyridin-5-yl}phenyl)oxy]ethyl}-1,5-dimethylpyr azole-3-carbonitrile], the IC50 (NMT1 enzyme) was 1.82 nM, the IC50 (MV-4-11 cells; Homo sapiens, MV4-11, 72 h) was less than 10 nM and the IC50 (MV-4-11 cells) was 5.56 nM.

With `CNCc1cnn2ccc(-c3ccc(F)c(F)c3OCCc3c(CC#N)nn(C)c3C)cc12` [Compound 28, (4-{2-[(2,3-difluoro-6-{3-[(methylam ino)methyl]pyrazolo[1,5-a]pyridin-5-yl}phenyl)oxy]ethyl}-1,5-dimethylpyrazol-3-yl)acetonitrile] the IC50 (NMT1 enzyme) was 1.95 nM and the IC50 (MV-4-11 cells; Homo sapiens, MV4-11, 72 h) was 10.7 nM.

For `CNCc1cnn2ccc(-c3ccc(F)cc3OCCc3c(C(C)(C)O)nn(C)c3C)cc12` [Compound 33, 2-(4-{2-[(5-fluoro-2-{3-[(methylamino)methyl]pyrazolo[1,5-a]pyridin-5-yl}phenyl)oxy]ethyl}-1,5-dimethylpyrazol-3-yl)propan-2-ol], the IC50 (NMT1 enzyme) was 2.13 nM and the IC50 (MV-4-11 cells; Homo sapiens, MV4-11, 72 h) was 5.49 nM.

With `CNCc1cnn2ccc(-c3ccc(F)cc3OCCc3c(C(C)O)nn(C)c3C)cc12` (centres unmarked) [Compound 35, 1-(4-{2-[(5-fluoro-2-{3-[(methylamino)methyl]pyrazolo[1,5-a]pyridin-5-yl}phenyl)oxy]ethyl}-1,5-dimethylpyrazol-3-yl)ethan-1-ol] the IC50 (NMT1 enzyme) was 2.05 nM and the IC50 (MV-4-11 cells; Homo sapiens, MV4-11, 72 h) was 5.04 nM.
